Patent US11566168B1, “Biocide blend for treating wellbores” (Halliburton Energy Services, Inc., priority 2021, dated 2023)

What was measured:
[1] = tested on: sulfate reducing bacteria (SRB); assay: Elevated temperature study of biocides, kill testing of SRB; assay type: cell-based, indigenous sulfate reducing bacteria; conditions: for biocidal effectiveness against SRB (FIG. 1): biocide-dosed water at 93° C. for 1 week, then 5 days at 32° C. with bacteria
Method: (§1) To facilitate a better understanding of the various embodiments, the following examples are given. […] Kill testing was performed at 32° C. (89.6° F.) at various contact times as follows. Bacterial populations were augmented prior to testing by culturing indigenous acid producing bacteria (APB) and sulfate reducing bacteria (SRB) in sample waters before starting kill studies. Prior to testing, cultures of APB and SRB from water samples were grown in culture medium. APB were grown in anaerobic phenol red dextrose medium (PRD). SRB were grown in American Petroleum Institute (API) medium without iron. The total dissolved solids (TDS) of SRB and APB media were selected to simulate wellbore fluids for some of the testing. Immediately preceding biocide testing, cultures were harvested by centrifugation. Cell pellets from mature bacteria were resuspended in sample water. The sample water, augmented with bacteria, was dispensed into 60 mL glass bottles and the appropriate amount of biocide was added. At the stated contact time of either 4 hours or 24 hours, biocide samples were taken for quantification. A standard serial dilution method into culture media was used to test biocide efficacy. Controls were serial diluted to theoretical extinction, while biocide-dosed samples were carried through 6 ten-fold dilutions as represented on the Y-axis of the figures. APB were quantitated by serial dilution into PRD medium. SRB were quantified by serial dilution into modified Postgate's medium B (MBP). Culture media were incubated at 32° C. (89.6° F.) and checked periodically. A change from red to yellow indicated a positive APB bottle. Formation of a black precipitate indicated a positive SRB bottle.
(§2) Elevated temperature studies of the biocides as shown in FIGS. 1 and 2 were conducted by adding 2 times the final biocide test concentration to 100 mL of sample water. The biocide-dosed sample was placed at 93° C. (199.4° F.) for 1 week or 2 weeks, FIG. 1 and FIG. 2, respectively. Following exposure to the elevated temperature, the heat-exposed biocide-dosed material was combined with an equal amount of sample water augmented with APB or SRB bacteria. The sample was then incubated for 5 days at 32° C. (89.6° F.). Following incubation, the sample material was serial diluted into PRD and MPB media for APB and SRB quantitation as discussed above. The biocides for FIGS. 1 and 2 are formaldehyde-releasing biocides. Tris(hydroxymethyl)nitromethane (“THNM”) and 4,4-dimethyloxazolidine (“DMO”) were obtained from DuPont®. Triazine was 1,3,5-triazine that is widely available commercially. Paraformaldehyde and […] (ratio 3:2) (“MBO”) was obtained from Vink chemicals. The formaldehyde-releasing biocides were in a concentration of 100, 150, 500, or 1,000 parts per million (“ppm”).

[2] = Properties that a biocide or blend possesses (Table 1)
Description: Some of the desirable properties can include maintaining biocidal activity in fluids having a high salinity or a high concentration of total dissolved solids, thermal stability, maintaining biocidal activity in the presence of ammonia or primary amines, quick kill, maintaining biocidal activity for extended periods of time—also known as persistence, and no interaction between the biocide and other additives having a negative charge (anions) within a treatment fluid.
The second property can be different. […] It is to be understood that unlike a triazine compound, glutaraldehyde is not a formaldehyde-releasing biocide.

[3] = tested on: acid producing bacteria (APB); assay: Elevated temperature study of biocides, kill testing of APB; assay type: cell-based, indigenous acid producing bacteria; conditions: for biocidal effectiveness against APB (FIG. 1): biocide-dosed water at 93° C. for 1 week, then 5 days at 32° C. with bacteria
Method: as §1, §2

[4] = at comparable or lower concentrations, 93° C. for 1 week
[5] = triazine at 100 ppm, 93° C. for 1 week

For 1,3,5-triazine, the “performance compared with the other formaldehyde-releasing biocides, SRB (FIG. 2)” value ([1]; 150 ppm, 93° C. for 2 weeks) was “performed better”, the “effectiveness compared with the other formaldehyde-releasing biocides, SRB (FIG. 1)” value [1, 4] was “as effective or more effective” and the “biocidal effectiveness against SRB (FIG. 1)” value [1] was “very effective”. For the same compound, the “effectiveness compared with MBO, SRB (FIG. 1)” value [1, 5] was “as effective as MBO at 1,000 ppm”, the Activity in ammonia [2] was “Yes” and the High salinity activity [2] was “Yes”. For the same compound, the “No interaction with anions” value [2] was “Yes”, the Quick kill [2] was “No” and the Thermal stability [2] was “Yes”. The “performance compared with the other formaldehyde-releasing biocides, APB (FIG. 2)” value ([3]; 150 ppm, 93° C. for 2 weeks) was “performed better”, the “effectiveness compared with the other formaldehyde-releasing biocides, APB (FIG. 1)” value [3, 4] was “as effective or more effective” and the “biocidal effectiveness against APB (FIG. 1)” value [3] was “effective”. For the same compound, the “effectiveness compared with MBO, APB (FIG. 1)” value [3, 5] was “as effective as MBO at 1,000 ppm”.
In the case of `CC1(C)COCN1` [DMO, 4,4-dimethyloxazolidine, reference compound], the “biocidal effectiveness against SRB (FIG. 1)” value [1] is reported as “not SRB” and the “biocidal effectiveness against APB (FIG. 1)” value [3] is reported as “effective”.
With `O=CCCCC=O` [Glutaraldehyde, glutaraldehyde, reference compound] the Activity in ammonia [2] was “No”, the High salinity activity [2] was “Yes” and the “No interaction with anions” value [2] was “Yes”. The Quick kill [2] was “Yes” and the Thermal stability [2] was “No”.
